Measurements as given in article PMC8018184, “Evaluation of the Pharmacophoric Role of the O–O Bond in Synthetic Antileishmanial Compounds: Comparison between 1,2-Dioxanes and Tetrahydropyrans” (Journal of Medicinal Chemistry, 2020).
Read-outs that look alike come from different tables or passages of the source.

Legend:
[1] = Cytotoxicity test on THP-1 cells (alamarBlue); format: cell-based; conditions: human, THP-1 cells (acute monocytic leukemia cell line); CSV supplement; read-out: CC50 against human acute monocytic leukemia cell line (THP-1)
Procedure: (§1) Vero cells (kidney of African green monkey epithelial cell line) were cultured at 37 °C in the MEM liquid medium supplemented with 10% FBS (EuroClone SpA), 1% levoglutamine (EuroClone SpA), and 1% penicillin–streptomycin (EuroClone SpA). THP-1 cells (human leukemia monocytic cell line) were cultured at 37 °C in the RPMI 1640 (EuroClone SpA) liquid medium supplemented with 10% FBS (EuroClone SpA), 1% levoglutamine (EuroClone SpA), 1% penicillin–streptomycin, and mercaptoethanol (Gibco) 50 μM.
(§2) The cytotoxicity of the compounds was determined using mammalian kidney epithelial cells (Vero cell line) and human acute monocytic leukemia cell line (THP-1). Cells were seeded (10^5 cells mL^–1) on 96-well plates with the complete MEM medium and incubated with test compounds at 37 °C in a 5% CO2 incubator. After 72 h of incubation, 20 μL of the alamarBlue reagent was added to each well and incubated at 37 °C for 24 h. Reduction of resazurin to resorufin was evaluated after 24 h by absorbance measurement at the Multiskan ascent plate reader (Thermo Fisher Scientific Inc.,) at 550 and 630 nm. […] Each experiment was performed in duplicate.
Cytotoxicity in THP-1 cell line
We performed additional cytotoxicity tests employing THP-1 cell line. We also calculated the
corresponding selectivity indexes, as the ratio between CC50 of THP-1 cell line and IC50 on amastigotes
THP-1 cells than on VERO cells; thus showing a not significant variance of selectivity index.
Table S3. Inhibitory activity of tetrahydropyrans 3 and endoperoxides 2 against amastigotes of L.
donovani, cytotoxicity in human acute monocytic leukemia cell line (THP-1) and selectivity index (SI).
Tetrahydropyran IC50 CC50 Endoperoxide IC50 CC50
a (µM)b (µM)c a (µM)b (µM)c
a Compounds tested as racemates. b IC50 represents the concentration of a compound that causes 50% growth inhibition.
Results represent the mean (± standard deviation, SD) of three independent experiments performed in duplicate. c CC50
represents 50% cytotoxic concentration on THP-1 cells. d Selectivity index (SI) = CC50/IC50. […]

[2] = Cytotoxicity test on Vero cells (alamarBlue); format: cell-based, African green monkey; conditions: chlorocebus sabaeus, Vero cells (kidney epithelial cell line); 72 h, alamarBlue; read-out: CC50 (50% cytotoxic concentration) on Vero cells
Procedure: as §1, §2

[3] = tested on: intramacrophage amastigotes of L. donovani; assay: Amastigote growth inhibition assay in infected THP-1 cells (Giemsa, infectivity index); format: cell-based, Leishmania donovani; conditions: for IC50: Leishmania donovani, intracellular amastigotes in THP-1, 72 h, read-out: IC50 against amastigotes of L. donovani
Procedure: To evaluate the efficacy of the compounds on the intracellular form of L. donovani, human acute monocytic leukemia cell line (THP-1) was infected with L. donovani promastigotes. Cells were harvested and seeded in a 96-well plate (10^5 cells mL^–1) in the complete RPMI 1640 medium, and PMA (0.1 μM, Cayman Chemical Company, Ann Arbor, Michigan, USA) was added for obtaining maturation and cell adherence. Cells were incubated at 37 °C in a 5% CO2 incubator. After 48 h, the medium was replaced with the fresh medium containing stationary-phase promastigotes that were then phagocyted by monocytic cells and transformed into intracellular amastigotes. After 24 h of incubation, newly synthesized compounds were added and the plates were incubated at 37 °C in a 5% CO2 incubator for 72 h. After incubation, wells were washed, fixed, and stained with Giemsa. Staining was detected using a Nikon Eclipse E200 light microscope (Nikon, Tokyo, Japan). The infectivity index (% of infected macrophages × average number of amastigotes per macrophage) was determined by counting at least 100 cells in duplicate cultures.

[4] = tested on: L. donovani promastigotes (MHOM/NP/02/BPK282/0cl4); assay: Promastigote growth inhibition assay (alamarBlue); format: cell-based; conditions: Leishmania donovani, HOMEM with 10% FBS
[5] = tested on: L. donovani promastigotes (MHOM/NP/02/BPK282/0cl4); assay: Promastigote growth inhibition assay (alamarBlue); format: cell-based, Leishmania donovani; conditions: for IC50: Leishmania donovani, 72 h, alamarBlue, HOMEM 20% FBS, compounds as racemates, read-out: IC50 (concentration causing 50% growth inhibition) against promastigotes of L. donovani; for Selectivity index (SI) = CC50/IC50: Vero CC50 / IC50 on promastigotes
Procedure: The bioactivity of the new tetrahydropyrans 3 was initially evaluated against the extracellular promastigote forms of L. donovani (MHOM/NP/02/BPK282/0cl4) as the reference strain, indicative of the leishmaniasis in the Old World. The results were expressed as IC50, i.e., the concentration of the product required to inhibit the parasite growth by 50%. When a compound could inhibit the promastigote growth, its cytotoxicity was also evaluated on Vero cells (Table 1) and on THP-1 cells (see the Supporting Information, Table S3) and the corresponding selectivity indexes (SIs) were calculated. The performance of each tetrahydropyran 3 was compared with that of the corresponding endoperoxide 2 (Table 1).
Promastigotes of a L. donovani reference strain (MHOM/NP/02/BPK282/0cl4) were maintained at 26 °C in a liquid custom-made medium, HOMEM Cat. no: 1140-082 (Gibco Thermo Fisher Scientific Inc., Waltham, USA), complete composition: S-MEM (Eagle) 1 × 1 liter pack, glucose (1–2 g), sodium bicarbonate (0.3 g), sodium pyruvate (0.11 g), p-aminobenzoic acid (1 mg), biotin (0.1 mg), HEPES (4.77–5.96 g), MEM amino acids (10 mL), MEM nonessential amino acids (10 mL), pH 7.5–7.6, supplemented with 20% fetal bovine serum (FBS, EuroClone SpA, Milan, Italy)[123] and 1% penicillin–streptomycin (EuroClone SpA).
To evaluate the efficacy of the compounds on the extracellular forms of L. donovani, promastigotes in their late log/stationary phase were seeded with the complete HOMEM medium at 10^6 cells mL^–1 in 96-well plates and incubated with tested compounds at a range concentration of 600–1.6 μM in a 26 °C incubator for 72 h. The antileishmanial drug amphotericin B was used as the positive control, and untreated promastigotes were the negative control. Each experiment was performed in duplicate. Stock solution of the compounds was 8 mM in DMSO. […] The alamarBlue assay includes a colorimetric growth indicator based on detection of metabolic activity. Specifically, the system incorporates an oxidation–reduction (REDOX) indicator that changes color in response to chemical reduction of the growth medium resulting from cell growth. The method monitors the reducing environment of proliferating cells; the cell-permeable resazurin is added (nonfluorescent form, blue color) and, upon entering cells, is reduced to resorufin (fluorescent form, red color) as a result of cellular metabolic activity. Evaluation was performed by adding 20 μL of alamarBlue and incubating at 26 °C for 24 h. The reducing environment was evaluated after 24 h by absorbance measurement at the Multiskan ascent plate reader (Thermo Fisher Scientific Inc.) at 550 and 630 nm.

[6] = THP-1 CC50 / IC50 on amastigotes
[7] = Vero CC50 / IC50 on amastigotes

| Structure (SMILES) | CC50 at 72 h [1] | CC50 at 72 h [2] | IC50 [3] | Selectivity index (SI) = CC50/IC50 [3, 6] | Selectivity index (SI) = CC50/IC50 [3, 7] | IC50 [4] | IC50 [5] | Selectivity index (SI) = CC50/IC50 [5] |
| --- | --- | --- | --- | --- | --- | --- | --- | --- |
| CCCCC1(CCCC)CO[C@@](C)(OC)[C@@H](CNCCCn2ccnc2)C1 (racemic) [3a, N-((5,5-Dibutyl-2-methoxy-2-methyltetrahydro-2H-pyran-3-yl)methyl)-3-(1H-imidazol-1-yl)propan-1-amine] | 26 µM | 35.2 ± 4.7 µM | 3.4 ± 0.6 µM | 7.6 | 10.3 | 1.9 µM | 3.4 ± 0.4 µM | 10.4 |
| CCCCC1(CCCC)C[C@H](CNCCCn2ccnc2)[C@](C)(OC)OO1 [2a] | 86 µM | 72 ± 6.6 µM | 12.2 ± 1.2 µM | 7.0 | 5.9 | 2.7 µM | 7.5 ± 1.7 µM | 9.6 |
